Test [1] has as its system HCT-116. Nature of the test: Residual PLD activity in human HCT-116 cells at 10 uM measured after 1 hr by amplex red phospholipase D assay as % of control.
The nature of test [2]: Inhibition of PLD in human A549 cells measured after 1 hr by amplex red phospholipase D assay. It is filed as cell-based.
The test system of test [3] is HCT-116. Nature of the test: Cytotoxicity against human HCT-116 cells assessed as inhibition of cell growth incubated for 48 hrs by WST-1 assay. In kind it is functional, cell-based. To be noted: HCT-116, 48 h. (Formazan colour is commonly taken as a measure of viable cells.)
For test [4], the system named is A549. Nature of the test: Cytotoxicity against human A549 cells assessed as inhibition of cell growth incubated for 48 hrs by WST-1 assay. In kind it is functional, cell-based. To be noted: A549, 48 h.

pIC50: −log10 of the molar value.

One may read the pIC50 as the negative decadic logarithm of the IC50, by convention in mol/L.

Regarding `O=C(CCCc1c[nH]c2ccccc12)Nc1cc(C(F)(F)F)cc(C(F)(F)F)c1`, the level, % of control in test [1] worked out at 55.5%.
As for `O=C(Nc1cc(C(F)(F)F)cc(C(F)(F)F)c1)c1cc2cc(C(F)(F)F)ccc2[nH]1`, the level, % of control in test [1] was 45.8%.
In test [1], `O=C(CCc1c[nH]c2ccccc12)Nc1cccc(F)c1` registered a level, % of control of 50.6%.
`O=C(Cc1c[nH]c2ccccc12)Nc1ccc(O)c(O)c1` came in with a level, % of control in test [1] of 54.4%.
Take `O=C(Cc1c[nH]c2ccccc12)Nc1cc(C(F)(F)F)cc(C(F)(F)F)c1`: the level, % of control in test [1] was determined as 53%.
Regarding `O=C(Nc1ccc(F)cc1)c1cc2cc(F)ccc2[nH]1`, the level, % of control in test [1] was determined as 53.2%.
Still for that read-out and setting: under `O=C(Nc1cc(F)cc(F)c1)c1cc2cc(F)ccc2[nH]1` stands 51.1%; under `COc1ccc(NC(=O)c2cc3cc(F)ccc3[nH]2)cc1OC`, 52.2%.
With `O=C(Nc1ccc(O)c(O)c1)c1cc2cc(F)ccc2[nH]1`, the pIC50 in test [2] is 5.37; in test [3], under 4.30; in test [4] it was under 3.70.
As for `O=C(Oc1cc(C(F)(F)F)cc(C(F)(F)F)c1)c1cc2cc(F)ccc2[nH]1`, the figures for the pIC50 in test [2], in test [3] and in test [4] were 5.51, under 4.30 and 4.30, respectively. This compound had a level, % of control in test [1] of 33.4%.
With `O=C(Nc1ccc(O)c(O)c1)c1c[nH]c2ccccc12`, the level, % of control in test [1] was found to be 51.1%.
On the same count and under the same terms, under `C[C@@H](CN1CCC(n2c(=O)[nH]c3cc(Cl)ccc32)CC1)NC(=O)c1ccc2ccccc2c1` stands 30.4%; under `COc1ccc(CNC(=O)c2cc3cc(F)ccc3[nH]2)cc1OC`, 48%.
Compound `O=C(Nc1cccc(C(F)(F)F)c1)c1cc2cc(F)ccc2[nH]1` displayed a level, % of control in test [1] of 47.6%.

The values above are taken from ChEMBL document CHEMBL6134796, “Development and Evaluation of Indole-Based Phospholipase D Inhibitors for Lung Cancer Immunotherapy” (J Med Chem, 2025).
